{"source": "patent US4782052A", "about": "“Octahydroindolo[2,3-a]quinolizin-1-yl-alkanecarboxylic acid amines and their therapeutically useful acid addition salts, pharmaceutical compositions containing them and process for preparing same” (Richter Gedeon Vegyeszeti Gyar Rt., priority 1984, dated 1988)", "key": {"[1]": {"system": "Indomethacin-induced intestinal ulceration", "test": "Inhibition of the Indomethacin-induced intestinal ulceration", "type": "in vivo, H-Wistar rats", "settings": "for Tensile strength of the intestinal wall at 24 hours after the last treatment: 3 consecutive days, ± S.E.M., Indomethacin control 72 ± 10, untreated 237 ± 4; for Resistance of the intestinal wall as % of the normal value: Indomethacin control 30", "description": "Inhibition of the Indomethacin-induced intestinal ulceration Unstarved H-Wistar rats weighing 120 to 150 g. were used for these investigations. The animals were orally treated with Indomethacin. Under these conditions a period of 24 to 48 hours is at least required for the development of visually observable intestinal ulcers. For evaluating the small intestine ulcers, the tensile strength of the intestinal wall was determined by using the inflation method of Ezer and Sporny (1975), as the strength of the intestinal wall is diminished by the ulceration-induced erosion. The small intestine from the pylorus down to the caecum was removed and after ligation of the end it was connected through a polyethylene tube with a W+W electronic BP 8005 pressure recorder (Ugo Basile, Italy). The whole small intestine was placed into a 0.9% saline solution at 37° C. and the pressure was increased until air bubbles appeared at the attenuated (weakened) sites of the intestinal wall. This pressure as expressed in mmHg is the measure of the tensile strength."}, "[2]": {"system": "gastric acid secretion in Shay rats", "test": "Inhibition of the gastric acid secretion in Shay rats", "type": "in vivo, Female H-Wistar rats", "settings": "for HCl output (4 hours): N 5, control 520 ± 28", "description": "Inhibition of the gastric acid secretion in Shay rats\nFemale H-Wistar rats weighing 120 to 150 g were starved for 24 hours while receiving water ad libitum. Then, the pylorus of the animals was ligated under a mild ether anesthesia. The test substances were administered orally or intraperitoneally. After 4 hours the animals were killed by an overdose of ether and after excision of the stomach, the volume and pH value of the gastric juice were measured. The acid content was determined by titration against 0.01N sodium hydroxide solution by using phenolphthalein as indicator."}, "[3]": {"system": "ethanolic hydrochloric acid-induced gastric edema and hemorrhagic lesions", "test": "Inhibition of the ethanolic hydrochloric acid-induced gastric necrosis", "type": "in vivo, Female RG-Wistar rats", "settings": "for Hemorrhagic lesions / Edema: ± S.E.M.; for Hemorrhagic lesions: control 132 ± 7; for Edema: control 349 ± 81; for ED50: Rattus norvegicus, oral", "description": "Inhibition of the ethanolic hydrochloric acid-induced gastric necrosis Female RG-Wistar rats weighing 120 to 150 g. were used for these investigations. The animals were starved for 24 hours while receiving water ad libitum. […] The test substances were orally administered 30 minutes before the treatment with the ethanolic hydrochloric acid. One hour later the animals were killed by an overdose of ether. Their stomach was removed and cut along the major curvature. The stomach was cleaned and its wet weight was weighed. The gastric edema was calculated from the difference between the obtained wet weight and the wet weight of the stomach of the untreated animals. Thereafter, the stomach was dried at room temperature and the presence of the hemorrhagic lesions was visually observed on the next day. The degree of the gastric necrosis was characterized by the mean value of the damage in mm./stomach. The results were statistically evaluated by Student's test."}, "Oral toxicity in rats": {"test": "Oral toxicity in rats", "settings": "rat, in vivo"}, "[4]": {"system": "aspirin-induced stomach ulcer", "test": "Inhibition of the aspirin-induced stomach ulcer in rats", "type": "in vivo, Female H-Wistar rats", "settings": "for No. of ulcers per stomach: ± S.E.M., aspirin control 16.6 ± 5", "description": "Inhibition of the aspirin-induced stomach ulcer in rats\nThis test is very common in the pharmacological practice. Female H-Wistar rats weighing 120 to 150 g. were starved for 24 hours while receiving water ad libitum. The stomach ulcer was induced by the oral administration of 100 mg./kg. aspirin in a Tween 80 suspension. The test substance was given immediately after the aspirin treatment. At the end of the 4th hour after treatment the animals were killed by an overdose of ether, their stomach was excised and cut along the major curvature. The stomach content was washed out and the hemorrhagic lesions on the glandular surface were counted."}, "[5]": {"settings": "3 × (50 + 10) mg./kg. p.o. with Indomethacin"}, "[6]": {"settings": "50 mg./kg. p.o., p < 0.01 vs control"}, "[7]": {"settings": "3 × (25 + 10) mg./kg. p.o. with Indomethacin"}}, "note": "Like-named read-outs stand apart in the source and are kept apart here.", "data": [{"smiles": "CN1CCN(CC(=O)N2c3ccccc3C(=O)Nc3cccnc32)CC1", "note": "[Pirenzepine, reference compound]", "values": [{"measurement": "Tensile strength of the intestinal wall at 24 hours after the last treatment", "setting": "[1]; [5]", "value": "121 ± 26", "unit": "mmHg"}, {"measurement": "Resistance of the intestinal wall as % of the normal value", "setting": "[1]; [5]", "value": 51, "unit": "%"}]}, {"smiles": "CC[C@@]1(CCC(=O)N[C@H](C)c2ccccc2)CCCN2CCc3c([nH]c4ccccc34)[C@@H]21", "note": "[RGH-2961, (-)-(1S,12bS)-1-ethyl-1,2,3,4,6,7,12,12b-octahydroindolo[2,3-a]quinolizin-1-yl-propionic acid (R)-1-phenylethylamide]", "values": [{"measurement": "HCl output inhibition", "setting": "[2]; 6 mg./kg. i.p.", "value": 19, "unit": "%"}, {"measurement": "HCl output (4 hours)", "setting": "[2]; 6 mg./kg. i.p., ± S.E.M.", "value": "425 ± 40 μmole/100 g. of body weight"}, {"measurement": "HCl output inhibition", "setting": "[2]; 10 mg./kg. p.o.", "value": 8, "unit": "%"}, {"measurement": "HCl output (4 hours)", "setting": "[2]; 10 mg./kg. p.o., ± S.E.M.", "value": "483 ± 40 μmole/100 g. of body weight"}, {"measurement": "HCl output inhibition", "setting": "[2]; 12 mg./kg. i.p., p < 0.01 vs control", "value": 63, "unit": "%"}, {"measurement": "HCl output (4 hours)", "setting": "[2]; 12 mg./kg. i.p., ± S.E.M.", "value": "195 ± 25 μmole/100 g. of body weight"}, {"measurement": "HCl output inhibition", "setting": "[2]; 20 mg./kg. p.o.", "value": 10, "unit": "%"}, {"measurement": "HCl output (4 hours)", "setting": "[2]; 20 mg./kg. p.o., ± S.E.M.", "value": "468 ± 35 μmole/100 g. of body weight"}, {"measurement": "HCl output inhibition", "setting": "[2]; 25 mg./kg. i.p.", "value": 100, "unit": "%"}, {"measurement": "HCl output (4 hours)", "setting": "[2]; 25 mg./kg. i.p.", "value": "0 μmole/100 g. of body weight"}, {"measurement": "HCl output inhibition", "setting": "[2]; 40 mg./kg. p.o.", "value": 22, "unit": "%"}, {"measurement": "HCl output (4 hours)", "setting": "[2]; 40 mg./kg. p.o., ± S.E.M.", "value": "409 ± 30 μmole/100 g. of body weight"}, {"measurement": "Edema Inhibition", "setting": "[3]; 1 mg./kg. p.o.", "value": 0, "unit": "%"}, {"measurement": "Hemorrhagic lesions Inhibition", "setting": "[3]; 1 mg./kg. p.o.", "value": 36, "unit": "%"}, {"measurement": "Hemorrhagic lesions", "setting": "[3]; 1 mg./kg. p.o., N 7", "value": "88 ± 28", "unit": "mm."}, {"measurement": "Edema", "setting": "[3]; 1 mg./kg. p.o., N 7", "value": "345 ± 93", "unit": "mg"}, {"measurement": "Edema Inhibition", "setting": "[3]; 10 mg./kg. p.o.", "value": 44, "unit": "%"}, {"measurement": "Hemorrhagic lesions Inhibition", "setting": "[3]; 10 mg./kg. p.o., p < 0.01 vs control", "value": 62, "unit": "%"}, {"measurement": "Hemorrhagic lesions", "setting": "[3]; 10 mg./kg. p.o., N 7", "value": "51 ± 9", "unit": "mm."}, {"measurement": "Edema", "setting": "[3]; 10 mg./kg. p.o., N 7", "value": "197 ± 52", "unit": "mg"}, {"measurement": "Edema Inhibition", "setting": "[3]; [6]", "value": 85, "unit": "%"}, {"measurement": "Hemorrhagic lesions Inhibition", "setting": "[3]; [6]", "value": 88, "unit": "%"}, {"measurement": "Hemorrhagic lesions", "setting": "[3]; 50 mg./kg. p.o., N 7", "value": "17 ± 6", "unit": "mm."}, {"measurement": "Edema", "setting": "[3]; 50 mg./kg. p.o., N 7", "value": "53 ± 41", "unit": "mg"}, {"measurement": "ED50", "setting": "[3]; gastric edema, read-out: oral ED50 value of the gastric edema inhibition", "value": 12.5, "unit": "mg/kg"}, {"measurement": "ED50", "setting": "[3]; hemorrhagic lesions, read-out: oral ED50 value of the gastric hemorrhagic lesion inhibition", "value": 3, "unit": "mg/kg"}, {"measurement": "LD50", "setting": "Oral toxicity in rats", "value": "> 1500", "unit": "mg/kg"}, {"measurement": "No. of ulcers per stomach", "setting": "[4]; 5 mg./kg. p.o. + aspirin 100 mg./kg., N 10", "value": "7.1 ± 2"}, {"measurement": "Inhibition", "setting": "[4]; 5 mg./kg. p.o., p < 0.01 vs aspirin control", "value": 58, "unit": "%"}, {"measurement": "Inhibition", "setting": "[4]; 10 mg./kg. p.o.", "value": 32, "unit": "%"}, {"measurement": "No. of ulcers per stomach", "setting": "[4]; 10 mg./kg. p.o. + aspirin 100 mg./kg., N 10", "value": "11.0 ± 3"}, {"measurement": "No. of ulcers per stomach", "setting": "[4]; 20 mg./kg. p.o. + aspirin 100 mg./kg., N 20", "value": "3.5 ± 2.1"}, {"measurement": "Inhibition", "setting": "[4]; 20 mg./kg. p.o., p < 0.01 vs aspirin control", "value": 79, "unit": "%"}, {"measurement": "No. of ulcers per stomach", "setting": "[4]; 50 mg./kg. p.o. + aspirin 100 mg./kg., N 10", "value": "2.5 ± 1.5"}, {"measurement": "Inhibition", "setting": "[4]; 50 mg./kg. p.o., p < 0.01 vs aspirin control", "value": 85, "unit": "%"}, {"measurement": "ED50", "setting": "[4]; Rattus norvegicus, 4 h, aspirin-induced gastric ulcer formation, oral", "value": 8, "unit": "mg/kg"}, {"measurement": "Tensile strength of the intestinal wall at 24 hours after the last treatment", "setting": "[1]; 3 × (12 + 10) mg./kg. p.o. with Indomethacin", "value": "132 ± 16", "unit": "mmHg"}, {"measurement": "Tensile strength of the intestinal wall at 24 hours after the last treatment", "setting": "[1]; [7]", "value": "195 ± 8", "unit": "mmHg"}, {"measurement": "Resistance of the intestinal wall as % of the normal value", "setting": "[1]; [7]", "value": 82, "unit": "%"}, {"measurement": "Tensile strength of the intestinal wall at 24 hours after the last treatment", "setting": "[1]; [5]", "value": "214 ± 6", "unit": "mmHg"}, {"measurement": "Resistance of the intestinal wall as % of the normal value", "setting": "[1]; [5]", "value": 90, "unit": "%"}, {"measurement": "Resistance of the intestinal wall as % of the normal value", "setting": "[1]; p.o. with Indomethacin", "value": 55, "unit": "%"}]}, {"smiles": "CN/C(=N/CCSCc1nc[nH]c1C)NC#N", "note": "[Cimetidine, reference compound]", "values": [{"measurement": "Edema Inhibition", "setting": "[3]; 100 mg./kg. p.o.", "value": 14, "unit": "%"}, {"measurement": "Hemorrhagic lesions Inhibition", "setting": "[3]; 100 mg./kg. p.o., p < 0.01 vs control", "value": 69, "unit": "%"}, {"measurement": "Hemorrhagic lesions", "setting": "[3]; 100 mg./kg. p.o., N 8", "value": "42 ± 13", "unit": "mm."}, {"measurement": "Edema", "setting": "[3]; 100 mg./kg. p.o., N 8", "value": "301 ± 42", "unit": "mg"}, {"measurement": "Tensile strength of the intestinal wall at 24 hours after the last treatment", "setting": "[1]; [5]", "value": "20 ± 25", "unit": "mmHg"}, {"measurement": "Resistance of the intestinal wall as % of the normal value", "setting": "[1]; [5]", "value": 8, "unit": "%"}]}]}
